Results taken from paper PMC10889159, “Synthesis and Antitumor Activity Evaluation of Novel Echinatin Derivatives with a 1,3,4-Oxadiazole Moiety” (International Journal of Molecular Sciences, 2024).

What was measured:
[1] = tested on: HCT116 cells; experiment: Cell cycle analysis (PI staining, flow cytometry); format: cell-based, human
Procedure: The effects of Compound T4 on cell cycle progression were verified by using a standard (PI) staining procedure followed by flow cytometry analysis. HCT116 cells were seeded in 6-well plates and incubated for 24 h until the cells adhered. […] Control cells and treated cells were washed twice with PBS, centrifuged (1000 rpm, 5 min), and collected at a final concentration of 50,000 cells. Then, a single cell suspension was fixed in ice-cold 70% (v/v) ethanol overnight at 4 °C. The cells were washed again with PBS. A total of 100 μL RNase A was added and the cells were incubated at 37 °C for 30 min. The cell DNA was stained with 400 μL PI for 30 min. Data collection and analysis were carried out using a flow cytometer (Beckman Coulter cytoFLEX, USA).

[2] = tested on: HCT116 cells; experiment: Wound healing assay; format: cell-based, human; conditions: 24 h, serum-free medium
Procedure: Five lines were drawn evenly on the back of the 6-well plate and transferred HCT116 cells (1 × 10^6/well) in a 6-well plate until a uniform monolayer of cells formed at the bottom of the 6-well plate. Then, we drew lines on the cells using a 200 μL pipette tip. We then carefully washed the damaged cell monolayer with PBS, then treated with different concentrations of Compound T4, and incubated in serum-free medium for 24 h. We then used an inverted microscope to take photos of the 6-hole plate at the 0 and 24 h time points and used ImageJ for processing and analysis.

[3] = tested on: HCT116 cells; experiment: Western blot of c-KIT downstream proteins and caspase-3; format: cell-based, human; conditions: 48 h
Procedure: HCT116 cells were seeded at a density of 4 × 10^5 cells per well and treated with various concentrations of Compound T4 (0, 1.25, 2.5, and 5 µM) for 48 h. After this, cells were collected and washed twice with ice-cold DPBS. The pellets were resuspended in a total protein extraction buffer (20 mM HEPES, 350 mM NaCl, 20% glycerol, 1% NP-40, 1 mM MgCl2, 0.5 mM EDTA, 0.1 mM EGTA, 0.1 mM DTT, 0.1 mM PMSF) containing a protease inhibitor cocktail and incubated on ice for 30 min with intermittent mixing. The protein concentration was measured using the Bradford reagent (Bio-Rad Laboratories Inc., Hercules, CA, USA). An equal amount (20 µg) of protein was loaded on 10% poly acrylamide gels and transferred to a nitrocellulose membrane. After blocking with 5% skimmed milk, the membrane was incubated at 4 °C overnight with specific primary antibodies. The membrane was washed and incubated at room temperature for 1 h with secondary antibodies conjugated with horseradish peroxidase (HRP). Finally, the immunoblot was developed for visualization using a chemiluminescence kit. Primary antibodies for Cleaved-caspase 3, MEK, p-MEK, Erk1/2, p-Erk1/2, mTOR, Akt, p-Akt, and GAPDH and all secondary antibodies were obtained from Santa Cruz Biotechnology (Santa Cruz, CA, USA).

[4] = target: c-KIT (Homo sapiens, UniProt P10721); experiment: Biochemical c-KIT activity assay (ADP-Glo); conditions: 20 μM ATP, read-out: IC50 for c-KIT inhibition
c-KIT, sequence (P10721 26-976): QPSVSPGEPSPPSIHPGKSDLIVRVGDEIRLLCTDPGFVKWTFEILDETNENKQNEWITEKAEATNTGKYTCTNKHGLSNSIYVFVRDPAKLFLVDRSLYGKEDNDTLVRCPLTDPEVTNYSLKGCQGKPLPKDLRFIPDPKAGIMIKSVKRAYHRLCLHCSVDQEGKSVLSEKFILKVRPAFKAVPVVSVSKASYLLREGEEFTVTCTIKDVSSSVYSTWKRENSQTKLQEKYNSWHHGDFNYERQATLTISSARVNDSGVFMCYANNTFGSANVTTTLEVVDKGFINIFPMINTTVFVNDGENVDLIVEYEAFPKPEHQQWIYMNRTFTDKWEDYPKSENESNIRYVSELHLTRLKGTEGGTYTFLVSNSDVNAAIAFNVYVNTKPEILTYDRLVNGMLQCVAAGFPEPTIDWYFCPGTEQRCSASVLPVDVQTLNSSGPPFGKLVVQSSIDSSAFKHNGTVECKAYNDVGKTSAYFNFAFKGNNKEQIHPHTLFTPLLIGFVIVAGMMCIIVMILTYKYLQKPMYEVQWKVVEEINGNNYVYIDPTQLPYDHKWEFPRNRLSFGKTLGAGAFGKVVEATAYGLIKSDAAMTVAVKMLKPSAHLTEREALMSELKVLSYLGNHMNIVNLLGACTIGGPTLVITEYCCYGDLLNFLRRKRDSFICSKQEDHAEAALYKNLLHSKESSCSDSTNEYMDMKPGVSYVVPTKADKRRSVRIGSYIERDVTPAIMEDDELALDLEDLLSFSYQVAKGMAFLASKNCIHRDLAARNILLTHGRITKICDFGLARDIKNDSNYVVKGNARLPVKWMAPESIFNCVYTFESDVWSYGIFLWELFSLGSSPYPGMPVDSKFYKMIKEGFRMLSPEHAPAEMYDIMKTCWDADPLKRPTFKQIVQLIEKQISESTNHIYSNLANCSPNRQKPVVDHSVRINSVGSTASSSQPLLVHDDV
Procedure: The enzymatic activities of c-KIT were determined by in vitro kinase assays using the ADP-Glo reagent (Promega, Madison, WI, USA) according to the manufacturer’s instructions. Briefly, 250 ng of c-KIT protein was incubated with compounds in 10 μL of reaction buffer (40 mM Tris−HCl, pH 7.4, 2 mM MnCl2, 2 mM DTT, 20 mM MgCl2, 0.1 mg/mL bovine serum albumin, 1 mM Na3VO4) containing 20 μΜ ATP and 40 μM poly (Glu4-Tyr1) as substrates at 30 °C for 150 min. The ADP-Glo reagent was then added, and the mixture was incubated at 25 °C for 40 min. The kinase detection reagent was added for another 30 min at 25 °C. The converted ADP was determined by luminescence measurement using a Wallac Vector 1420 multilabel counter (PerkinElmer).

[5] = tested on: HCT116 cells; experiment: Cell colony formation assay; format: cell-based, human; conditions: 1.25, 2.5, 5 µM, 14 d
Procedure: To investigate the effects of echinatin derivatives on the clonogenic potential of HCT116 cells, the colony formation assay was performed as previously described. HCT116 cells were seeded into 6-well plates at 37 °C with 5% CO2 for 24 h and then treated with Compound T4 and echinatin at various concentrations (0 µM, 1.25 µM, 2.5 µM, and 5 µM) for 14 d. Then, cells were stained with crystal violet solution and clone numbers were counted directly with the naked eye.

[6] = tested on: HCT116 cells; experiment: Intracellular ROS generation (DCFH-DA, flow cytometry); format: cell-based, human; conditions: escalating concentrations
Procedure: Approximately 4 × 10^5 cells per well were seeded in a 6-well plate and incubated for 12 h, then the discarded medium was replaced with fresh medium containing different concentrations of Compound T4 (0 μM, 0.625 μM, 1.25 μM, 2.5 μM, and 5 μM) for 48 h. ROS production was detected by using the peroxide-sensitive fluorescent probe DCFH-DA. After treatment with different concentrations of T4, the cells were incubated with 10 µg/mL DCFH-DA at 37 °C for 20 min. Then, the cells were harvested. Samples were analyzed by flow cytometry (FACS Calibur, Becton-Dickinson, East Rutherford, NJ, USA).

[7] = tested on: HCT116; experiment: CCK8 antiproliferative assay, HCT116; format: cell-based; conditions: Homo sapiens, HCT-116; CCK8, 48 h, mean ± SD, n = 3
Procedure: (§1) For all biological assays, all of the synthesized compounds were dissolved in DMSO. The cytotoxicity of all of the target compounds against the HCT116, K562, KU812, and HT-29 cells was determined by an CCK8 assay in vitro using adriamycin and echinatin as the controls. About 3000 cells per well were seeded in a 96-well plate and incubated for 24 h. Then, the cells were stimulated with different concentrations of test compounds for 48 h. The CCK8 solution (100 µL 0.5 mg/mL^−1) was added to each well, and the cells were incubated for another 4 h. Then, the absorbance of the samples was measured at 450 nm. The IC50 values were calculated according to the Logit method after obtaining the inhibitory rate. All experiments were repeated three times.

[8] = tested on: four cancer cell lines (K562, KU812, HT-29, HCT116); experiment: CCK8 antiproliferative assay, summary over the four cancer cell lines; format: cell-based; conditions: Homo sapiens; range over K562, KU812, HT-29, HCT116; read-out: IC50 against the four cancer cell lines
Procedure: as §1

[9] = tested on: HT-29; experiment: CCK8 antiproliferative assay, HT-29; format: cell-based; conditions: Homo sapiens, CCK8, 48 h, mean ± SD, n = 3
Procedure: as §1

[10] = tested on: K562; experiment: CCK8 antiproliferative assay, K562; format: cell-based; conditions: Homo sapiens, CCK8, 48 h, mean ± SD, n = 3
Procedure: as §1

[11] = tested on: KU812; experiment: CCK8 antiproliferative assay, KU812; format: cell-based; conditions: Homo sapiens, CCK8, 48 h, mean ± SD, n = 3
Procedure: as §1

[12] = tested on: CCC-HIE-2; experiment: Cytotoxicity toward CCC-HIE-2 cells; format: cell-based, human
[13] = tested on: HCT116 cells; experiment: TUNEL staining; format: cell-based, human; conditions: varying concentrations
Procedure: The slides were immersed in 4% paraformaldehyde (pH 7.4) for 25 min at room temperature and then washed with PBS 3 times. The cells were immersed in 0.1% Triton X-100 solution prepared with PBS for 10 min (operation on ice) and then washed twice with PBS. Dilute 5× equilibration buffer with deionized water and 100 µL 1× equilibration buffer were added to each climbing tablet to cover the sample area to be tested, then incubated at room temperature for 15 min. […] The slides were placed in a wet box and incubated at 37 °C for 60 min. The wet box was wrapped with aluminum foil to avoid light. These were then washed three times with PBS with DAPI dripped and incubated in the dark for 5 min. The nucleus of the specimen was stained. Water-absorbent paper was used to absorb the liquid on the climbing sheet, then a sealing liquid containing an anti-fluorescence quenching agent was used to seal the film before the images were observed and collected under a fluorescence microscope.

IC50 [4]: 178 nM
IC50 [7]: 1710 ± 460 nM
IC50 [8]: 1.71 to 8.6 µM
IC50 [9]: 2870 ± 320 nM
IC50 [10]: 8.6 ± 0.61 µM
melting point: 180.5 to 181.4 °C
SMILES: COc1cc(O)ccc1/C=C/C(=O)c1ccc(OCc2nnc(Nc3ccc(C(F)(F)F)cc3)o2)cc1 [Compound T4, (E)-3-(4-Hydroxy-2-methoxyphenyl)-1-{4-{{5-{[4-(trifluoromethyl)phenyl]amino}-1,3,4-oxadiazol-2-yl}methoxy}phenyl}propenone]
distribution of cell cycle phase (%): S ([1]; 5 μM, 48 h (control 28.0%)): 16.8%
distribution of cell cycle phase (%): G0/G1 ([1]; 5 μM, 48 h (control 54.7%)): 65.1%
cell cycle arrest ([1]; various concentrations, 48 h): blocked the cell cycle in the G0/G1 phase
HCT116 cell migration [2]: strongly inhibited
expression of the phosphorylated forms of Akt, MEK, Erk1/2, and mTOR ([3]; 1.25, 2.5, 5 μM): significantly downregulated
protein expression levels of Akt, MEK, and Erk1/2 ([3]; 1.25, 2.5, 5 μM): not significantly altered
expression of caspase-3, as a percentage of GAPDH ([3]; upregulated from 24% following T4 treatment (0-5 μM)): 49%
cell colony number [5]: decreased in a dose-dependent manner
generation and accumulation of ROS [6]: concentration-dependent generation and accumulation of ROS
IC50 [11]: 8.09 ± 0.91 µM
growth of CCC-HIE-2 cells [12]: not significantly influenced
SI (selectivity index) ([12]; CCC-HIE-2 vs HCT116): 16.1
IC50 ([12]; human embryonic intestinal mucosal derived cell line): 27.6 ± 1.37 µM
apoptotic cells (TUNEL red fluorescence) [13]: increase in apoptotic cells
